Source: PubChem BioAssay (NCI)
“And” between values parts separate entries of the source, which are not always exact repeats. Equal entries are not always repeated.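 Interpolation was linear, between the two tested concentrations surrounding the appropriate level; five concentrations were tested over 48 hours in 96-well plates. Here, GI50 denotes the concentration required for 50% inhibition of growth. The concentration for full growth arrest is given as TGI.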

Key:
Experiment in all cases: inhibition of tumour cell growth, NCI panel, 48 h
DMS 114 small cell lung = system: DMS 114 small cell lung
KM20L2 colon = system: KM20L2 colon
HS 578T breast = system: HS 578T breast
DU-145 prostate = system: DU-145 prostate
T-47D breast = system: T-47D breast
BT-549 breast = system: BT-549 breast
MDA-N = system: MDA-N

COc1ccc(/C=C\c2cc(OC)c3c(c2)OCO3)c(O)c1O
TGI (DMS 114 small cell lung): 8.81 µM | TGI (KM20L2 colon): 61.5 µM

CC(C)c1ccc(C(C)C(=O)N(CC2=C(C(C)c3ccccn3)c3ccccc3C2)C(C)C)cc1 (stereo unspecified)
GI50 (HS 578T breast): 1.84 µM | TGI (HS 578T breast): 13.6 µM | GI50 (DU-145 prostate): 5.29 µM | TGI (DU-145 prostate): 18 µM | GI50 (T-47D breast): 2.94 µM | TGI (T-47D breast): > 100 µM

Oc1ccc(Cl)cc1-c1cc(-c2ccccc2Cl)[nH]n1
GI50 (HS 578T breast): 7.85 µM | TGI (HS 578T breast): > 100 µM | GI50 (DU-145 prostate): 8.05 µM | TGI (DU-145 prostate): > 100 µM | GI50 (BT-549 breast): 36 µM | TGI (BT-549 breast): > 100 µM | GI50 (T-47D breast): 1.61 µM | TGI (T-47D breast): > 100 µM

O=C(O)CCSC(=O)Nc1cccc(F)c1
TGI (DMS 114 small cell lung): > 100 µM | TGI (KM20L2 colon): > 100 µM

COC(=O)Nc1nc2ccc(S(=O)c3ccccc3)cc2[nH]1 (stereo unspecified)
GI50 (HS 578T breast): 19.6 µM | TGI (HS 578T breast): > 100 µM | GI50 (DU-145 prostate): 31 µM | TGI (DU-145 prostate): > 100 µM | GI50 (BT-549 breast): 3.98 µM | TGI (BT-549 breast): > 100 µM | GI50 (T-47D breast): 4.38 µM | TGI (T-47D breast): > 100 µM

CC1=C(C(=O)Nc2ccc(F)c(Cl)c2)C(c2ccc(Cl)cc2)NC(=O)N1 (stereo unspecified)
GI50 (HS 578T breast): 21.5 µM | TGI (HS 578T breast): 51.1 µM | GI50 (DU-145 prostate): 15.6 µM | TGI (DU-145 prostate): 37 µM | GI50 (BT-549 breast): 14.6 µM | TGI (BT-549 breast): 32.6 µM | GI50 (T-47D breast): > 100 µM | TGI (T-47D breast): > 100 µM

CC(=O)OC(C)C(=O)C1c2cccc(O)c2C(=O)c2c(O)cc(C)cc21 (stereo unspecified)
TGI (DMS 114 small cell lung): 0.497 µM | TGI (KM20L2 colon): 2.72 µM

C[C@@H](CS(C)(=O)=O)Nc1ncc2cc(Oc3ccc(F)cc3F)c(=O)n(C)c2n1
GI50 (HS 578T breast): > 25 µM | TGI (HS 578T breast): > 25 µM | GI50 (DU-145 prostate): > 25 µM | TGI (DU-145 prostate): > 25 µM | GI50 (BT-549 breast): > 25 µM | TGI (BT-549 breast): > 25 µM | GI50 (T-47D breast): > 25 µM | TGI (T-47D breast): > 25 µM

CC(=O)[O][Hg][c]1c(N)c(C)cc(C)c1F
GI50 (HS 578T breast): 1.6 µM | TGI (HS 578T breast): 6.85 µM | GI50 (DU-145 prostate): 2.39 µM | TGI (DU-145 prostate): 7.14 µM | GI50 (BT-549 breast): 2.22 µM | TGI (BT-549 breast): 5.29 µM | GI50 (T-47D breast): 1.39 µM | TGI (T-47D breast): 4.47 µM

COc1cc2nc(C)nc(N[C@H](C)c3cc(N)cc(C(F)(F)F)c3)c2cc1O[C@H]1CCOC1
GI50 (HS 578T breast): 14.7 µM | TGI (HS 578T breast): 38.9 µM | GI50 (DU-145 prostate): 16.2 µM | TGI (DU-145 prostate): 30.5 µM | GI50 (BT-549 breast): 11.5 µM | TGI (BT-549 breast): 24.2 µM | GI50 (T-47D breast): 16.3 µM | TGI (T-47D breast): 41.4 µM

N#CC(C#N)=c1ccc(=C2NCC3CCCN23)cc1 (stereo unspecified)
TGI (DMS 114 small cell lung): > 100 µM | TGI (KM20L2 colon): > 100 µM

O=C1c2cccnc2-c2nc(-c3ccccc3[N+](=O)[O-])cc3c2c1nc1ccccc13
GI50 (HS 578T breast): 31.2 µM | TGI (HS 578T breast): 86.4 µM | GI50 (DU-145 prostate): 14.9 µM | TGI (DU-145 prostate): 33.3 µM | GI50 (MDA-N): 12.2 µM | TGI (MDA-N): 26.1 µM | GI50 (BT-549 breast): 16.7 µM | TGI (BT-549 breast): 73.2 µM | GI50 (T-47D breast): 5.3 µM | TGI (T-47D breast): > 100 µM

COc1ccc(C2=CSc3cc(Cl)c(C)cc3S(=O)(=O)N2C(C)=O)cc1
GI50 (HS 578T breast): 55.2 µM | TGI (HS 578T breast): > 100 µM | GI50 (DU-145 prostate): 38.4 µM | TGI (DU-145 prostate): > 100 µM | GI50 (BT-549 breast): 29.9 µM | TGI (BT-549 breast): > 100 µM

COc1ccccc1NC(=O)CC(=O)n1nc(C)c(N=Nc2ccccc2C(=O)O)c1C
TGI (DMS 114 small cell lung): > 100 µM | TGI (KM20L2 colon): > 100 µM

CC(=O)N1[C@H](C(=O)O)CS[C@H]1c1ccncc1
TGI (DMS 114 small cell lung): > 100 µM | TGI (KM20L2 colon): > 100 µM

O=c1cc(-c2cccc(O)c2)[nH]c2cc3c(cc12)OCO3
TGI (DU-145 prostate): 0.883 µM | TGI (DMS 114 small cell lung): 5.68 µM | TGI (MDA-N): 1.07 µM | TGI (BT-549 breast): > 100 µM | TGI (T-47D breast): > 100 µM

Cc1cnc(NC(=O)C(Cc2ccccc2)NC(=O)c2ccccc2)s1 (stereo unspecified)
GI50 (HS 578T breast): 6.69 µM | TGI (HS 578T breast): 35.3 µM | GI50 (DU-145 prostate): 21.4 µM | TGI (DU-145 prostate): 47 µM | GI50 (BT-549 breast): 29.1 µM | TGI (BT-549 breast): > 100 µM | GI50 (T-47D breast): 23.1 µM | TGI (T-47D breast): 82.6 µM

COc1cc(C(=O)/C=C/c2sc(Cl)nc2Cl)cc(OC)c1OC
GI50 (HS 578T breast): 2.02 µM | TGI (HS 578T breast): 5.54 µM | GI50 (DU-145 prostate): 1.8 µM | TGI (DU-145 prostate): 3.21 µM | GI50 (BT-549 breast): 1.87 µM | TGI (BT-549 breast): 3.6 µM | GI50 (T-47D breast): 2.14 µM | TGI (T-47D breast): 5.35 µM

CC(=O)NC1=C(NCC(C)(C)C)C(=O)c2ccccc2C1=O
TGI (KM20L2 colon): > 100 µM

CCOC(=O)C(Sc1ccccc1)c1c(OC)cc(=O)oc1/C=[N+](/[O-])c1ccc(N(C)C)cc1 (stereo unspecified)
TGI (DMS 114 small cell lung): 42.9 µM | TGI (KM20L2 colon): 89.2 µM

CC[C@@]12CCCN3CC[C@]4(c5cccc(OC)c5N(C(C)=O)[C@@H]4CC1)[C@H]32
TGI (HS 578T breast): > 100 µM | TGI (DU-145 prostate): > 100 µM | TGI (MDA-N): > 100 µM | TGI (BT-549 breast): > 100 µM | TGI (T-47D breast): > 100 µM

COC(=O)[C@@H](C)C[C@H](Cc1ccc(F)cc1)NC(=O)c1csc([C@@H](C[C@H](C(C)C)N(C)C(=O)[C@@H](NC(=O)[C@H]2CCCCN2C)C(C)C)OC(C)=O)n1
GI50 (HS 578T breast): 0.00102 µM and 0.00612 µM | GI50 (DU-145 prostate): 0.000984 µM and 0.00525 µM | TGI (DU-145 prostate): 0.0214 µM | TGI (BT-549 breast): 0.0568 µM and 0.261 µM

Fc1ccc(Nc2ncnc3ccc(-c4cnc5[nH]ccc5c4)cc23)cc1Cl
GI50 (HS 578T breast): 2.66 µM | TGI (HS 578T breast): > 45.9 µM | GI50 (DU-145 prostate): 4.58 µM | TGI (DU-145 prostate): > 93.3 µM | GI50 (BT-549 breast): 3.11 µM | TGI (BT-549 breast): > 27.9 µM | GI50 (T-47D breast): 0.592 µM | TGI (T-47D breast): 13.9 µM

NC(CSC(c1ccccc1)(c1ccccc1)c1ccc2c(c1)OCO2)C(=O)O (stereo unspecified)
GI50 (HS 578T breast): 0.392 µM | TGI (HS 578T breast): 24.6 µM | GI50 (DU-145 prostate): 2.33 µM | TGI (DU-145 prostate): 6.88 µM | GI50 (BT-549 breast): 0.559 µM | TGI (BT-549 breast): 75.9 µM | GI50 (T-47D breast): 0.597 µM | TGI (T-47D breast): > 67.9 µM

COc1cc2nc(-c3ccc(C(F)(F)F)cc3)cc(OCCCN3CCC(O)CC3)c2cc1OC
GI50 (HS 578T breast): 3.75 µM | TGI (HS 578T breast): 20.9 µM | GI50 (DU-145 prostate): 4.96 µM | TGI (DU-145 prostate): 20.4 µM | GI50 (BT-549 breast): 6.59 µM | TGI (BT-549 breast): 22.1 µM | GI50 (T-47D breast): 2.97 µM | TGI (T-47D breast): 19.1 µM

CSc1ccccc1C#C/C=C\C#Cc1ccccc1N1CCCC1=O
GI50 (HS 578T breast): > 9.95 µM | TGI (HS 578T breast): > 50 µM | GI50 (DU-145 prostate): > 22.5 µM | TGI (DU-145 prostate): > 50 µM | TGI (BT-549 breast): > 45.4 µM | TGI (T-47D breast): > 20.3 µM

COC(=O)[C@@]12C3=NO[C@]1(C(=O)OC)C(O[Si](C)(C)C(C)(C)C)[C@H]1OC(C)(C)O[C@H]1[C@@H]2C(OCc1ccccc1)CC3 (stereo partly specified)
TGI (DMS 114 small cell lung): > 100 µM | TGI (KM20L2 colon): > 100 µM

Cc1cc2nc(C(Cl)Cl)nc(-c3ccc(Cl)cc3)n2n1
GI50 (HS 578T breast): 1.34 µM | TGI (HS 578T breast): 4.6 µM | GI50 (DU-145 prostate): 0.268 µM | TGI (DU-145 prostate): 0.827 µM | GI50 (BT-549 breast): 2.75 µM | TGI (BT-549 breast): > 100 µM | GI50 (T-47D breast): 2.19 µM | TGI (T-47D breast): > 26.3 µM

COc1c2ccoc2c(/C=C/C=O)c2oc(-c3ccccc3)cc(=O)c12
GI50 (HS 578T breast): 7.2 µM | TGI (HS 578T breast): > 100 µM | GI50 (DU-145 prostate): 10.7 µM | TGI (DU-145 prostate): > 100 µM | GI50 (BT-549 breast): 2.88 µM | TGI (BT-549 breast): 13.1 µM | GI50 (T-47D breast): 2.14 µM | TGI (T-47D breast): 6.25 µM

Cc1cc(=O)n2[nH]c(-c3ccc(C(C)(C)C)cc3)cc2n1
GI50 (HS 578T breast): 3.74 µM | TGI (HS 578T breast): 33.3 µM | GI50 (DU-145 prostate): 11.4 µM | TGI (DU-145 prostate): 75.9 µM | GI50 (BT-549 breast): 17.4 µM | TGI (BT-549 breast): > 100 µM | GI50 (T-47D breast): 4.43 µM | TGI (T-47D breast): 79.8 µM
